The values below come from ChEMBL document CHEMBL3526141, “Characterization of human liver enzymes involved in the biotransformation of boceprevir, a hepatitis C virus protease inhibitor” (Drug Metab Dispos, 2011).

The subject of data set [1] is Liver cytosol. Kind of data set: Drug metabolism in human liver cytosol treated with 20 uM [14C]boceprevir assessed as quercetin-mediated inhibition of metabolite formation by LC-MS/MS/FSA method. It counts as ADME, tissue-based.
For data set [2], the target named is T1, Aldo-keto reductase family 1 member C2 (Homo sapiens, UniProt P52895).
T1 sequence (P52895 whole entry): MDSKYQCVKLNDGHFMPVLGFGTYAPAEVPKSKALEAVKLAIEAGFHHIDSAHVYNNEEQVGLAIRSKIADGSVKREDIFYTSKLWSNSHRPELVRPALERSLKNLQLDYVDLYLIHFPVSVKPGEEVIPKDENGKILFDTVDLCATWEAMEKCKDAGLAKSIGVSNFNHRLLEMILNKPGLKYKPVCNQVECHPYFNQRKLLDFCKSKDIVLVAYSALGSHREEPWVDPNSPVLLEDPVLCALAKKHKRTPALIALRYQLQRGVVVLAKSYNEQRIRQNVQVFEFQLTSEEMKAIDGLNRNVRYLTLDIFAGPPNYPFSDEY
Kind of data set: Drug metabolism in human recombinant AKR1C2 expressing HEK293 cells treated with 20 uM boceprevir assessed as 100 uM flufenamic acid-mediated inhibition of AKR1C2-mediated metabolite formation after 120 mins in presence of NADPH by LC-MS/MS/FSA method. It counts as ADME, cell-based. Set-up: interact cpd dose 100 uM. As to conditions: hek293, 2 h.

Data set [3] is described as follows: Drug metabolism in human liver S9 fraction treated with 20 uM assessed as compound formation in presence of NADPH generating system by LC-MS/MS/FSA method. It counts as ADME, subcellular.
Data set [4] deals with Liver cytosol. Briefly: Drug metabolism in human liver cytosol at 20 uM assessed as (1R,2S,5S)-N-((2S,3R)-4-amino-1-cyclobutyl-3-hydroxy-4-oxobutan-2-yl)-3-((S)-2-(3-tert-butylureido)-3,3-dimethylbutanoyl)-6,6-dimethyl-3-azabicyclo[3.1.0]hexane-2-carboxamide formation in presence of phenolphthalein by LC-MS/MS/FSA method. It is filed as ADME.

Turning to `CC(C)(C)NC(=O)N[C@H](C(=O)N1C[C@H]2[C@@H]([C@H]1C(=O)N[C@@H](CC1CCC1)[C@@H](O)C(N)=O)C2(C)C)C(C)(C)C`, the “inhibition (INH)” value in the data set with Liver cytosol [1] is on record as < 30%; in data set [2], > 89%. Moreover, in data set [3], the Compound recovery was determined as 28%.
Consider `CC(C)(C)NC(=O)N[C@H](C(=O)N1C[C@H]2[C@@H]([C@H]1C(=O)NC(CC1CCC1)C(=O)C(N)=O)C2(C)C)C(C)(C)C` (some centres undefined) [BOCEPREVIR], for which the Compound recovery entry with Liver cytosol [4] is “metabolite_not_detected”.
